US6426360B1, “4,5-substituted imidazolyl compounds for the treatment of inflammation” (G D Searle & Co., priority 1994, dated 2002)

Columns and labels:
Human COX I = biological target: T1, Human COX I (Homo sapiens, UniProt P23219); assay: COX I activity in vitro (PGE2 ELISA, recombinant enzyme); assay type: biochemical; settings: arachidonic acid 10 μM, pre-incubation 10-20 minutes; read-out: Human COX I ID50
T1 construct: A 2.0 kb fragment containing the coding region of either human or murine COX-I or human or murine COX-II; made in house; host or cells: SF9 insect cells (recombinant baculovirus, transfer vector pVL1393)
Description: (§1) A 2.0 kb fragment containing the coding region of either human or murine COX-I or human or murine COX-II was cloned into a BamH1 site of the baculovirus transfer vector pVL1393 (Invitrogen) to generate the baculovirus transfer vectors for COX-I and COX-II in a manner similar to the method of D. R. O'Reilly et al (Baculovirus Expression Vectors: A Laboratory Manual (1992)). Recombinant baculoviruses were isolated by transfecting 4 μg of baculovirus transfer vector DNA into SF9 insect cells ([…]) along with 200 ng of linearized baculovirus plasmid DNA by the calcium phosphate method. See M. D. Summers and G. E. Smith, A Manual of Methods for Baculovirus Vectors and Insect Cell Culture Procedures, Texas Agric. Exp. Station Bull. 1555 (1987). Recombinant viruses were purified by three rounds of plaque purification and high titer (10E7-10E8 pfu/ml), stocks of virus were prepared. For large scale production, SF9 insect cells were infected in 10 liter fermentors (0.5×10^6/ml) with the recombinant baculovirus stock such that the multiplicity of infection was 0.1. After 72 hours the cells were centrifuged and the cell pellet homogenized in Tris/Sucrose (50 mM: 25%, pH 8.0) containing 1% 3-[(3-cholamidopropyl)dimethylammonio]-1-propanesulfonate (CHAPS). The homogenate was centrifuged at 10,000×G for 30 minutes, and the resultant supernatant was stored at −80° C. before being assayed for COX activity.
(§2) COX activity was assayed as PGE2 formed/μg protein/time using an ELISA to detect the prostaglandin released. CHAPS-solubilized insect cell membranes containing the appropriate COX enzyme were incubated in a potassium phosphate buffer (50 mM, pH 8.0) containing epinephrine, phenol, and heme with the addition of arachidonic acid (10 μM). Compounds were pre-incubated with the enzyme for 10-20 minutes prior to the addition of arachidonic acid. Any reaction between the arachidonic acid and the enzyme was stopped after ten minutes at 37° C./room temperature by transferring 40 μl of reaction mix into 160 μl ELISA buffer and 25 μM indomethacin. The PGE2 formed was measured by standard ELISA technology (Cayman Chemical).

Human COX II = biological target: T2, Human COX II (Homo sapiens, UniProt P35354); assay: COX II activity in vitro (PGE2 ELISA, recombinant enzyme); assay type: biochemical; settings: arachidonic acid 10 μM, pre-incubation 10-20 minutes; read-out: Human COX II ID50
T2 construct: A 2.0 kb fragment containing the coding region of either human or murine COX-I or human or murine COX-II; made in house; host or cells: SF9 insect cells (recombinant baculovirus, transfer vector pVL1393)
T2 sequence (P35354 18-604): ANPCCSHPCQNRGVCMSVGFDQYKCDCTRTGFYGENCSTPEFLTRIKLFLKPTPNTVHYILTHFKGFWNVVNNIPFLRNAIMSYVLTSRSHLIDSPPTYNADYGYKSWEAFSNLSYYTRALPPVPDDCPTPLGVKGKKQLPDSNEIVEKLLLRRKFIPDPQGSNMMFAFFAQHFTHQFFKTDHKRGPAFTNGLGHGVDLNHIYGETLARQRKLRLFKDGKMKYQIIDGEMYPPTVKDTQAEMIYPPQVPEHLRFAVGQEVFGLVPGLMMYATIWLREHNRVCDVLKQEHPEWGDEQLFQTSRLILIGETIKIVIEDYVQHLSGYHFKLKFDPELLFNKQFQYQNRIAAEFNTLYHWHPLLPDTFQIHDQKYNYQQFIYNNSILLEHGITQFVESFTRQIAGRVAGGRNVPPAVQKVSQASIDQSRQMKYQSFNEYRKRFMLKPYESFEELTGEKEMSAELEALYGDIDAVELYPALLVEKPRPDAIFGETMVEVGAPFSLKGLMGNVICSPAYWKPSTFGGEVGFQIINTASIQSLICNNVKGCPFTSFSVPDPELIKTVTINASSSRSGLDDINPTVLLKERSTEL
Description: The COX II inhibition activity of the compounds of this invention illustrated in the Examples was determined by the following methods.
as §1, §2

T1 sequence (P23219 24-599): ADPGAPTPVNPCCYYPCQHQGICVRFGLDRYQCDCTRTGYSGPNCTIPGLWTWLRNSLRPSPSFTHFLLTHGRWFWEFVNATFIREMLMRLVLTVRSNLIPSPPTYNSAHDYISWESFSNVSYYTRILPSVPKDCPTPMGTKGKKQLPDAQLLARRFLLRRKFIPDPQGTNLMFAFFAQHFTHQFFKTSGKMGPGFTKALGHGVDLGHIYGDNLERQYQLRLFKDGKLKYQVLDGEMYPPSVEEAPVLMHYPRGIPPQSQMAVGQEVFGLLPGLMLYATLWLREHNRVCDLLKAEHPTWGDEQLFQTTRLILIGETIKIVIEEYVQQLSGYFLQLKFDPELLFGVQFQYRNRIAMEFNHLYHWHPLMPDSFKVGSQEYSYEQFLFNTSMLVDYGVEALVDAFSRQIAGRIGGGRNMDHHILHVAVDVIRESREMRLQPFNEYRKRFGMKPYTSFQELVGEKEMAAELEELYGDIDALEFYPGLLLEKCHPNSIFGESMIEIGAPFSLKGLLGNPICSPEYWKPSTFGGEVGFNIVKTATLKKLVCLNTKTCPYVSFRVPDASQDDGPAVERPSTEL

Which results are given for `CS(=O)(=O)c1ccc(-c2nc(COc3ccccc3)[nH]c2-c2ccc(F)cc2)cc1` [Example 2, 5-(4-Fluorophenyl)-4-(4-methylsulfonylphenyl)-2-phenoxymethyl-1H-imidazole]?
IC50 (Human COX I): > 100 µM; melting point: 189 to 190 °C; IC50 (Human COX II): 0.2 µM

With `CS(=O)(=O)c1ccc(-c2nc(/C=C/c3ccccc3)[nH]c2-c2ccc(F)cc2)cc1` [Example 3, 5-(4-Fluorophenyl)-4-(4-methylsulfonylphenyl)-2-(2-phenyl-trans-eth-1-ene)-1H-imidazole] as the compound, how does the IC50 (Human COX I) read?
Its IC50 is 2.2 µM.

And the melting point?
Its melting point is 221 to 224 °C.

And the IC50 (Human COX II)?
The IC50 was 0.2 µM.

What does the source list for `CS(=O)(=O)c1ccc(-c2nc(-c3cc4ccccc4o3)[nH]c2-c2ccc(F)cc2)cc1` [Example 4, 2-(2-Benzofuryl)-5-(4-fluorophenyl)-4-(4-methylsulfonylphenyl)-1H-imidazole]?
IC50 (Human COX I): > 100 µM; melting point: 235 to 237 °C; IC50 (Human COX II): 0.5 µM

Which IC50 (Human COX I) does the source give for `CC(C)c1nc(-c2ccc(S(C)(=O)=O)cc2)c(-c2ccc(F)cc2)[nH]1` [Example 5, 5-(4-Fluorophenyl)-2-isopropyl-4-(4-methylsulfonylphenyl)-1H-imidazole] here?
The IC50 was over 100 µM.

What about the melting point of the same compound?
Its melting point is 214 to 215 °C.

And the IC50 (Human COX II)?
The IC50 was 1.2 µM.

With `Cc1nc(-c2ccc(S(C)(=O)=O)cc2)c(-c2ccc(F)cc2)[nH]1` [Example 6, 5-(4-Fluorophenyl)-2-methyl-4-(4-methylsulfonylphenyl)-1H-imidazole] as the compound, how does the IC50 (Human COX I) read?
The IC50 was over 100 µM.

What about the IC50 (Human COX II) of the same compound?
The IC50 was 4.6 µM.

Which IC50 (Human COX I) does the source give for `CS(=O)(=O)c1ccc(-c2nc(-c3ccco3)[nH]c2-c2ccc(F)cc2)cc1` [Example 7, 5-(4-Fluorophenyl)-2-(2-furyl)-4-(4-methylsulfonylphenyl)-1H-imidazole] here?
The IC50 was over 100 µM.

What about the melting point of the same compound?
The melting point was 244 to 246 °C (dec.).

And the IC50 (Human COX II)?
Its IC50 is 4.8 µM.

For `CS(=O)(=O)c1ccc(-c2nc(SCc3ccccc3)[nH]c2-c2ccc(F)cc2)cc1` [Example 8, 2-Benzylthio-5-(4-fluorophenyl)-4-[4-(methylsulfonyl)phenyl]-1H-imidazole], which IC50 (Human COX I) is on record?
Its IC50 is 2.1 µM.

And the melting point?
Its melting point is 155 to 156 °C.

Which IC50 (Human COX I) does the source give for `CS(=O)(=O)c1ccc(-c2nc(CO)[nH]c2-c2ccc(F)cc2)cc1` [Example 9, 5-(4-Fluorophenyl)-2-hydroxymethyl-4-[4-(methylsulfonyl)phenyl]imidazole] here?
The IC50 was over 100 µM.

And the melting point?
Its melting point is 115 to 117 °C.

And the IC50 (Human COX II)?
Its IC50 is 5.1 µM.

For `COc1ccc(-c2[nH]c(C(F)(F)F)nc2-c2ccc(S(C)(=O)=O)cc2)cc1F` [Example 10, 5-(3-Fluoro-4-methoxyphenyl)-4-[4-(methylsulfonyl)phenyl]-2-(trifluoromethyl)-1H-imidazole], which IC50 (Human COX I) is on record?
Its IC50 is 63.5 µM.

And the melting point?
Its melting point is 228 to 234 °C.

And the IC50 (Human COX II)?
Its IC50 is 1.2 µM.

For `CS(=O)(=O)c1ccc(-c2nc(C(F)(F)F)[nH]c2-c2ccc(Cl)cc2)cc1` [Example 11, 5-(4-Chlorophenyl)-4-[4-(methylsulfonyl)phenyl]-2-(trifluoromethyl)-1H-imidazole], which IC50 (Human COX I) is on record?
Its IC50 is 10.4 µM.

What about the IC50 (Human COX II) of the same compound?
The IC50 was 0.4 µM.

Which results are given for `CS(=O)(=O)c1ccc(-c2nc(C(F)(F)F)[nH]c2-c2ccccc2Cl)cc1` [Example 12, 5-(2-Chlorophenyl)-4-[4-(methylsulfonyl)phenyl]-2-(trifluoromethyl)-1H-imidazole]?
IC50 (Human COX I): > 100 µM; IC50 (Human COX II): 1.3 µM

Which IC50 (Human COX I) does the source give for `CS(=O)(=O)c1ccc(-c2nc(C(F)(F)F)[nH]c2-c2ccc(Cl)c(Cl)c2)cc1` [Example 13, 5-(3,4-Dichlorophenyl)-4-[4-(methylsulfonyl)phenyl]-2-(trifluoromethyl)-1H-imidazole] here?
The IC50 was 9.6 µM.

With `CS(=O)(=O)c1ccc(-c2nc(C(F)(F)F)[nH]c2-c2ccc3ccccc3c2)cc1` [Example 14] as the compound, how does the IC50 (Human COX I) read?
The IC50 was 2 µM.

And the melting point?
The melting point was 228 to 230 °C.

What about the IC50 (Human COX II) of the same compound?
The IC50 was 0.6 µM.

Which results are given for `COc1ccc(-c2[nH]c(C(F)(F)F)nc2-c2ccc(S(C)(=O)=O)cc2)cc1` [Example 15, 5-(4-Methoxyphenyl)-4-[4-(methylsulfonyl)phenyl]-2-(trifluoromethyl)-1H-imidazole]?
IC50 (Human COX I): 5.6 µM; IC50 (Human COX II): 2.9 µM

Which results are given for `Cc1ccc(-c2[nH]c(C(F)(F)F)nc2-c2ccc(S(C)(=O)=O)cc2)cc1` [Example 16, 5-(4-Methylphenyl)-4-[4-(methylsulfonyl)phenyl]-2-(trifluoromethyl)-1H-imidazole]?
IC50 (Human COX I): 20 µM; melting point: 234 to 238 °C; IC50 (Human COX II): 0.6 µM

With `CS(=O)(=O)c1ccc(-c2nc(C(F)(F)F)[nH]c2-c2ccc(F)cc2F)cc1` [Example 17, 5-(2,4-Difluorophenyl)-4-[4-(methylsulfonyl)phenyl]-2-(trifluoromethyl)-1H-imidazole] as the compound, how does the IC50 (Human COX I) read?
Its IC50 is over 100 µM.

And the IC50 (Human COX II)?
The IC50 was 0.3 µM.

Which results are given for `CS(=O)(=O)c1ccc(-c2nc(C(F)(F)F)[nH]c2-c2ccc(F)c(F)c2)cc1` [Example 18, 5-(3,4-Difluorophenyl)-4-[4-(methylsulfonyl)phenyl]-2-(trifluoromethyl)-1H-imidazole]?
IC50 (Human COX I): > 100 µM; IC50 (Human COX II): 0.2 µM

For `NS(=O)(=O)c1ccc(-c2nc(C(F)(F)F)[nH]c2-c2ccc(F)cc2)cc1` [Example 21, 4-[5-(4-Fluorophenyl)-2-(trifluoromethyl)-1H-imidazol-4-yl]benzenesulfonamide], which IC50 (Human COX I) is on record?
Its IC50 is 10.8 µM.

And the melting point?
Its melting point is 259 to 260 °C.

What does the source list for `Cn1c(C(F)(F)F)nc(-c2ccc(S(C)(=O)=O)cc2)c1-c1ccc(F)cc1` [Example 44, 5-(4-Fluorophenyl)-1-methyl-4-[4-(methylsulfonyl)phenyl]-2-(trifluoromethyl)-1H-imidazole]?
IC50 (Human COX I): > 100 µM; IC50 (Human COX II): 12.8 µM

For `Cc1cccc(-c2[nH]c(C(F)(F)F)nc2-c2ccc(S(N)(=O)=O)cc2)c1` [Example 60, 5-(3-Methylphenyl)-4-[4-(sulfonamido)phenyl]-2-trifluoromethyl-1H-imidazole], which IC50 (Human COX I) is on record?
The IC50 was 6.2 µM.

What about the IC50 (Human COX II) of the same compound?
The IC50 was 0.1 µM.

For `CS(=O)(=O)c1ccc(-c2nc(C(F)(F)F)[nH]c2-c2cccnc2)cc1` [Example 62, 4-(4-(Methylsulfonyl)phenyl]-5-(3-pyridyl)-2-(trifluoromethyl)-1H-imidazole], which IC50 (Human COX I) is on record?
The IC50 was over 100 µM.

And the IC50 (Human COX II)?
The IC50 was 2.4 µM.

What does the source list for `CS(=O)(=O)c1ccc(-c2nc(C(F)(F)F)[nH]c2-c2cccc(C#N)c2)cc1` [Example 63]?
IC50 (Human COX I): > 100 µM; IC50 (Human COX II): 1.3 µM

Which IC50 (Human COX I) does the source give for `C=CCOCc1nc(-c2ccc(F)cc2)c(-c2ccc(S(C)(=O)=O)cc2)[nH]1` [Example 80, 4-(4-Fluorophenyl)-5-[4-(methylsulfonyl)phenyl]-2-[(2-propenyloxy)methyl]-1H-imidazole] here?
Its IC50 is over 100 µM.

And the IC50 (Human COX II)?
The IC50 was 2.9 µM.

With `CCOCc1nc(-c2ccc(F)cc2)c(-c2ccc(S(C)(=O)=O)cc2)[nH]1` [Example 81, 2-(Ethoxymethyl)-4-(4-fluorophenyl)-5-[4-(methylsulfonyl)phenyl]-1H-imidazole] as the compound, how does the IC50 (Human COX I) read?
The IC50 was 77 µM.

What about the IC50 (Human COX II) of the same compound?
Its IC50 is 3.3 µM.

For `CS(=O)(=O)c1ccc(-c2[nH]c(COCc3ccccc3)nc2-c2ccc(F)cc2)cc1` [Example 82, 4-(4-Fluorophenyl)-5-[4-(methylsulfonyl)phenyl]-2-(phenyl-methoxymethyl)-1H-imidazole], which IC50 (Human COX I) is on record?
Its IC50 is over 100 µM.

What about the IC50 (Human COX II) of the same compound?
Its IC50 is 0.7 µM.

What does the source list for `CC(O)(c1nc(-c2ccc(F)cc2)c(-c2ccc(S(C)(=O)=O)cc2)[nH]1)C(F)(F)F` (stereo not drawn) [Example 91, 4-(4-Fluorophenyl)-α-methyl-5-[4-(methylsulfonyl)phenyl]-α-(trifluoromethyl)-1H-imidazole-2-methanol]?
IC50 (Human COX I): > 100 µM; IC50 (Human COX II): 5.9 µM

Which IC50 (Human COX I) does the source give for `CS(=O)(=O)c1ccc(-c2[nH]c(S(=O)(=O)c3ccccc3)nc2-c2ccc(F)cc2)cc1` [Example 92, 4-(4-Fluorophenyl)-5-[4-(methylsulfonyl)phenyl]-2-(phenyl-sulfonyl)-1H-imidazole] here?
The IC50 was over 100 µM.

And the IC50 (Human COX II)?
The IC50 was 3 µM.
